According to patent publication US20080317857A1, “V-Atpase Inhibitors of Use in the Treatment of Septic Shock” (Brane Discovery S.r.l., priority 2005, published 2008):
Where two headings read alike, the source gives them in different places.

Assays:
V-ATPase = conditions: cited from earlier work
[1] = tested on: NADPH-oxidase activation (H2O2 release) in Monocytes; test: Respiratory burst (H2O2 assay) in monocytes; assay type: cell-based, human; conditions: for inhibition at 0.4 µM / inhibition at 1 µM / inhibition at 0.0005 µM / inhibition at 0.001 µM: Homo sapiens, Monocyte; for inhibition at 0.4 µM: [cpd] 0.4 μM; for inhibition at 1 µM: [cpd] 1.0 μM; for inhibition at 0.0005 µM: [cpd] 0.0005 μM
Experimental: (§1) NADPH-oxidase activation was measured as induction of H2O2 release (derived from dismutation of O2^−) triggered in PMNs and monocytes by PMA (200 ng/ml). Briefly, PMNs and monocytes were pretreated at 37° C. for 30-60 min with test compound at different concentrations, and stimulated with phorbol 12-myristate 13-acetate (PMA, 200 ng/ml) dissolved in 0.5 ml of a standard reaction mixture. Release of H2O2 was evaluated in real time at time points of 5 min by using a microplate fluorescence reader (Perkin-Elmer). Results are expressed as nmoles of H2O2 released over time by 10^6 cells. Shown are dose-response curves of inhibitory effect on H2O2 release over 60 min.

rat ovariectomized model = conditions: cited from earlier work
[2] = tested on: NADPH-oxidase activation (H2O2 release) in PMNs; test: Respiratory burst (H2O2 assay) in PMNs; assay type: cell-based, human; conditions: Homo sapiens, read-out: Inhibition of H2O2 release induced by PMA in PMNs (% PMA control); for inhibition at 0.0005 µM: [cpd] 0.0005 μM; for inhibition at 0.001 µM: [cpd] 0.001 μM
Experimental: as §1

[3] = 0.5 h, 30 min, read-out: Inhibition of H2O2 release induced by PMA in Monocytes (% PMA control)
[4] = 40 min, 40 min, read-out: Inhibition of H2O2 release induced by PMA in Monocytes (% PMA control)
[5] = 50 min, 50 min, read-out: Inhibition of H2O2 release induced by PMA in Monocytes (% PMA control)

What does the source list for O=C(Nc1cccc2c1nc(C(F)(F)F)n2CC(=O)N1CCOCC1)c1c(Cl)cccc1Cl [FR-177995]?
concentrations generally active in inhibiting V-ATPase (V-ATPase): 0.4 to 1 µM; inhibition at 0.4 µM [1, 3]: 27.1%; inhibition at 1 µM [1, 3]: 21.3%; inhibition at 0.4 µM [1, 4]: 29%; inhibition at 1 µM [1, 4]: 6.3%; inhibition at 0.4 µM [1, 5]: 26.7%; inhibition at 1 µM [1, 5]: 5.5%; respiratory burst / NADPH-oxidase activation induced by PMA in monocytes (in words) ([1]; PMA 200 ng/ml): had effect; anti-osteoporotic activity (rat ovariectomized model): high anti-osteoporotic activity

For CO/C1=C\C(C)=C\[C@@H](C)[C@@H](O)[C@@H](C)C/C(C)=C/C=C/[C@H](OC)[C@@H]([C@@H](C)[C@@H](O)[C@H](C)[C@@]2(O)C[C@@H](O)[C@H](C)[C@@H](C(C)C)O2)OC1=O [Bafilomycin A1], which “inhibition of V-ATPase (in words)” value (V-ATPase; literature) is on record?
Its value is “very potent and highly specific inhibitors”.

And the inhibition at 0.0005 µM ([2]; 0.5 h, 30 min)?
The inhibition at 0.0005 µM was 7.1%.

And the inhibition at 0.001 µM ([2]; 0.5 h, 30 min)?
Its inhibition at 0.001 µM is 26.4%.

And the inhibition at 0.0005 µM ([2]; 40 min, 40 min)?
The inhibition at 0.0005 µM was 9.8%.

What about the inhibition at 0.001 µM ([2]; 40 min, 40 min) of the same compound?
The inhibition at 0.001 µM was 27.2%.

What about the inhibition at 0.0005 µM ([2]; 50 min, 50 min) of the same compound?
The inhibition at 0.0005 µM was 9.3%.

And the inhibition at 0.001 µM ([2]; 50 min, 50 min)?
Its inhibition at 0.001 µM is 29.9%.

What about the inhibition at 0.0005 µM [1, 3] of the same compound?
Its inhibition at 0.0005 µM is 22.1%.

And the inhibition at 0.001 µM ([1]; 0.5 h, [cpd] 0.001 μM, 30 min, read-out: Inhibition of H2O2 release induced by PMA in Monocytes (% PMA control))?
Its inhibition at 0.001 µM is 30.8%.

What about the inhibition at 0.0005 µM [1, 4] of the same compound?
Its inhibition at 0.0005 µM is 28.2%.

What about the inhibition at 0.001 µM ([1]; 40 min, [cpd] 0.001 μM, 40 min, read-out: Inhibition of H2O2 release induced by PMA in Monocytes (% PMA control)) of the same compound?
The inhibition at 0.001 µM was 37.2%.

What about the inhibition at 0.0005 µM [1, 5] of the same compound?
The inhibition at 0.0005 µM was 32.4%.

What about the inhibition at 0.001 µM ([1]; 50 min, [cpd] 0.001 μM, 50 min, read-out: Inhibition of H2O2 release induced by PMA in Monocytes (% PMA control)) of the same compound?
The inhibition at 0.001 µM was 47.9%.

What about the inhibition at 0.001 µM ([1]; 1 nM concentration, read-out: inhibition of the respiratory burst in monocytes) of the same compound?
The inhibition at 0.001 µM was 48%.
